Laboratory results published in PubChem BioAssay (NCI).
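1) Cells in 96-well plates. 2) Compound, 48 h, 5 concentrations. 3) Linear interpolation between surrounding doses. 4) Unreached endpoint = highest concentration. GI50 marks 50% less growth. TGI marks complete inhibition of growth.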

Tests used:
Assay in all cases: NCI tumour cell line growth inhibition, 48 h
[1] = test system: DU-145 prostate
[2] = test system: 786-0 renal
[3] = test system: A498 renal
[4] = test system: HCT-116 colon
[5] = test system: HCT-15 colon
[6] = test system: M14 melanoma
[7] = test system: NCI-H460 lung
[8] = test system: OVCAR-5 ovarian
[9] = test system: SK-OV-3 ovarian
[10] = test system: SW-620 colon
[11] = test system: SR leukemia
[12] = test system: CCRF-CEM leukemia
[13] = test system: EKVX NSCLC
[14] = test system: HCC-2998 colon
[15] = test system: HT29 colon
[16] = test system: IGROV1 ovarian
[17] = test system: K-562 leukemia
[18] = test system: KM12 colon
[19] = test system: MCF7 breast
[20] = test system: MDA-MB-435
[21] = test system: MOLT-4 leukemia
[22] = test system: PC-3 prostate
[23] = test system: RPMI-8226 leukemia
[24] = test system: SN12C renal
[25] = test system: SNB-75 CNS
[26] = test system: UACC-62 melanoma
[27] = test system: UO-31 renal

Compound: N=C(N)c1ccc(-c2ccc(-c3ccccc3)s2)cc1F
- GI50 [1]: 1.13 µM
- TGI [1]: 2.38 µM

Compound: CN(C)[C@@H]1C(=O)C(C(N)=O)=C(O)[C@@]2(O)C(=O)C3=C(O)c4c(O)cc(CN5CCc6ccccc6C5)c(Cl)c4C[C@H]3C[C@@H]12
- GI50 [2]: 1.76 µM
- TGI [2]: 3.3 µM
- GI50 [3]: 1.76 µM
- TGI [3]: 3.29 µM
- GI50 [1]: 1.64 µM
- TGI [1]: 3.04 µM
- GI50 [4]: 1.6 µM
- TGI [4]: 2.97 µM
- GI50 [5]: 0.0531 µM
- TGI [5]: 2.36 µM
- GI50 [6]: 1.61 µM
- TGI [6]: 3.03 µM
- GI50 [7]: 1.79 µM
- TGI [7]: 3.4 µM
- GI50 [8]: 1.62 µM
- TGI [8]: 3.02 µM
- GI50 [9]: 1.73 µM
- TGI [9]: 3.18 µM
- GI50 [10]: 1.92 µM
- TGI [10]: 3.6 µM

Compound: N=C(N)c1ccc(-c2ccc(-c3ccc(F)cc3)s2)cc1
- GI50 [1]: 1.63 µM
- TGI [1]: 2.98 µM
- GI50 [11]: 0.307 µM
- TGI [11]: > 100 µM

Compound: OC(c1ccc(Cl)cc1)(c1ccc(Cl)cc1)C(O)(c1ccc(Cl)cc1)c1ccc(Cl)cc1
- GI50 [12]: 3.41 µM
- TGI [12]: > 100 µM
- GI50 [13]: 3.14 µM
- TGI [13]: > 100 µM
- GI50 [14]: 2.56 µM
- TGI [14]: > 100 µM
- GI50 [4]: 2.02 µM
- TGI [4]: > 100 µM
- GI50 [5]: 2.93 µM
- TGI [5]: > 100 µM
- GI50 [15]: 1.72 µM
- TGI [15]: > 100 µM
- GI50 [16]: 1.97 µM
- TGI [16]: > 100 µM
- GI50 [17]: 3.56 µM
- TGI [17]: > 100 µM
- GI50 [18]: 4.12 µM
- TGI [18]: > 100 µM
- GI50 [6]: 3.23 µM
- TGI [6]: > 100 µM
- GI50 [19]: 3.27 µM
- TGI [19]: > 100 µM
- GI50 [20]: 2.94 µM
- TGI [20]: > 100 µM
- GI50 [21]: 3.18 µM
- TGI [21]: > 100 µM
- GI50 [7]: 3.11 µM
- TGI [7]: > 100 µM
- GI50 [22]: 3.25 µM
- TGI [22]: > 100 µM
- GI50 [23]: 3.27 µM
- TGI [23]: > 100 µM
- GI50 [24]: 3.06 µM
- TGI [24]: > 100 µM
- GI50 [25]: 4.36 µM
- TGI [25]: > 100 µM
- GI50 [10]: 3.24 µM
- TGI [10]: > 100 µM
- GI50 [26]: 2.41 µM
- TGI [26]: > 100 µM
- GI50 [27]: 2.89 µM
- TGI [27]: > 100 µM
